Results taken from publication PMC11979273, “A phase I study to evaluate the safety, tolerability, and pharmacokinetics of HEC113995PA·H2O, a novel dual-acting serotonergic antidepressant, in healthy subjects” (Frontiers in Pharmacology, 2025).
Like-named read-outs stand apart in the source and are kept apart here.

Key:
[1] = Single ascending-dose study, safety (adverse events); format: in vivo, human
Protocol: The study comprised a total of 7 dose groups (2.5, 5, 10, 20, 40, 60, and 80 mg groups, respectively). The first dose group (2.5 mg) consisted of 8 subjects, with 6 receiving HEC113995PA·H2O and 2 receiving placebo. Dose groups 2–7 each included 10 subjects, with 8 subjects receiving HEC113995PA·H2O and 2 subjects receiving placebo. Male and female participants were randomly assigned to the groups. Serial blood samples were collected before and after drug administration to determine the plasma concentration of pharmacokinetics (PK) and to evaluate the pharmacokinetic characteristics. The time points of blood collection and safety evaluation of PK in the second to seventh dose groups were adjusted based on the results of the first dose group. Drug safety and tolerability were evaluated on day 2 and 4 in the first dose group and on day 4 and 7 in the second to seventh dose groups. The trial was conducted in a dose-escalation manner, with progression to the next dose arm only after the safety of the previous arm had been evaluated. In the fourth group (20 mg group), in addition to blood samples, urine and stool samples were also collected for in vivo drug metabolic transformation studies.
(§1) Safety indicators were assessed through adverse events (AE), clinical laboratory tests (including blood routine, blood biochemistry, urine routine), vital signs monitoring (ear temperature), pulse, respiration and blood pressure in a sitting position), 12-lead electrocardiogram (ECG) and physical examinations. Adverse events (AE) and serious adverse events (SAE) were evaluated following the criteria outlined in National Cancer Institute Common Terminology Criteria for Adverse Events (NCI-CTCAE) version 5.0.
(§2) Any adverse events that occurred in all subjects during the clinical trial were recorded with the following details: AE name, occurrence time, end time, severity, whether it was classified as a SAE, severity criteria (if applicable), treatment measures and outcomes, actions taken on investigational drug due to the AE, and the causal relationship between the AE and administrated drug, etc. Each AE was recorded separately.
(§3) The subjects were under close monitoring at the clinical research center until the sample retention and safety evaluation were completed. During the safety trial, drug intolerance of a given dose was defined as follows: grade 2 or higher drug-related AEs occurred in more than half of the subjects, or grade 3 or higher drug-related AEs occurred in more than one quarter of the subjects. The dose escalation was halted after drug intolerance occurred.

[2] = tested on: other subtypes of 5-HT receptors, histamine receptors, and acetylcholine receptors; assay: In vitro affinities or activities to other receptors; format: binding
[3] = Multiple ascending-dose study, safety (adverse events); format: in vivo
Protocol: Three drug doses (10, 20 and 40 mg) were utilized. A total of 36 healthy subjects of both genders were assigned randomly to the three groups (n = 12), with10 subjects taking HEC113995PA·H2O tablets and 2 taking placebo. The participants in the 10 mg dose group received a single dose daily in the morning after overnight fasting, or a single dose daily after a standard meal in the 20 mg and 40 mg dose groups for 10 consecutive days. Serial blood samples were collected within 0.5 h before drug administration on days 7, 8 and 9, and before and after drug administration on days 1 and 10 to determine plasma concentration and pharmacokinetic characteristics. Safety and tolerability were evaluated on days 4, 8, 13 and 15.
The trial was conducted in a dose-escalation manner, with the administration of the next dose arm only after the tolerability and safety of the previous arm had been fully evaluated. Following the assessments by both the investigator and the sponsor, the next dose level could be reverted to the previous dose group if deemed necessary. In such cases, twelve new healthy subjects (10 taking HEC113995PA·H2O tablets and 2 taking placebo) were enrolled to explore the maximum safe tolerated dose. Throughout the entire trial (including the SAD trial, FE trial and MAD trial), each subject was only allowed to participate in one dose group.
as §1, §2, §3

[4] = Acid-base ionization constants; format: physicochemical

Cc1nc(-c2cnc(N3CCN(CCCc4c[nH]c5ccc(C#N)cc45)CC3)nc2)sc1C(N)=O [HEC113995PA·H2O]
incidence of subjects experiencing TEAEs ([1]; SAD 2.5 mg group, 1 case): 16.7% | incidence of subjects experiencing TEAEs ([1]; SAD 5 mg group, 3 cases): 37.5% | number of subjects experiencing TEAEs ([1]; SAD 10 mg group): 0 case | incidence of subjects experiencing TEAEs ([1]; SAD 20 mg group, 5 cases): 62.5% | incidence of subjects experiencing TEAEs ([1]; SAD 40 mg group, 6 cases): 75% | incidence of subjects experiencing TEAEs ([1]; SAD 60 mg group, 7 cases): 87.5% | incidence of subjects experiencing TEAEs ([1]; SAD 80 mg group, 7 cases): 87.5% | incidence of subjects experiencing TEAEs ([1]; SAD overall safety analysis set incl. placebo, 36 subjects): 52.9% | incidence of subjects experiencing TRAE ([1]; SAD overall safety analysis set, 33 cases): 48.5% | TRAE incidence: abdominal distension ([1]; SAD overall, 1 case): 1.9% | TRAE incidence: elevated conjugated bilirubin ([1]; SAD overall, 1 case): 1.9% | TRAE incidence: elevated serum bilirubin ([1]; SAD overall, 1 case): 1.9% | TRAE incidence: elevated serum creatine phosphokinase ([1]; SAD overall, 1 case): 1.9% | TRAE incidence: hyperuricemia ([1]; SAD overall, 5 cases): 7.4% | TRAE incidence: nausea ([1]; SAD overall, 5 cases): 7.4% | TRAE incidence: dizziness ([1]; SAD overall, 8 cases): 11.8% | TRAE incidence: elevated triglycerides ([1]; SAD overall, 8 cases): 11.8% | TRAE incidence: diarrhea ([1]; SAD overall, 13 cases): 19.1% | severity of elevated conjugated bilirubin ([1]; SAD, CTCAE 5.0): grade 2 | severity of other TRAEs ([1]; SAD, CTCAE 5.0, spontaneously relieved without treatment): grade 1 | tolerability ([1]; healthy Chinese subjects, single dose range 2.5–80 mg): well tolerated | higher affinities towards SERT and the 5-HT1A receptor than other receptors ([2]; in vitro selectivity): over 100 fold | in vitro affinities or activities to other receptors ([2]; other 5-HT receptor subtypes, histamine and acetylcholine receptors, unpublished data): at the micromolar level | related TEAE: diarrhea ([3]; MAD 10 mg): 2 cases | related TEAE: dizziness ([3]; MAD 10 mg): 1 case | related TEAE: elevated blood triglycerides ([3]; MAD 10 mg): 2 cases | related TEAE: nausea ([3]; MAD 10 mg): 1 case | Grade 2 related AE: elevated blood triglycerides ([3]; MAD 10 mg group): 1 case | related TEAE: elevated gamma-glutamyl transferase (γ-GT) ([3]; MAD 10 mg group): 1 case | related TEAE: oral ulcer ([3]; MAD 10 mg group): 2 cases | incidence of subjects experiencing TRAEs ([3]; MAD 10 mg group, 7 subjects): 70.0% | incidence of subjects experiencing TEAE ([3]; MAD 10 mg group, 8 subjects): 80.0% | related TEAE: diarrhea ([3]; MAD 20 mg): 1 case | related TEAE: dizziness ([3]; MAD 20 mg): 1 case | related TEAE: nausea ([3]; MAD 20 mg): 3 cases | incidence of subjects experiencing TRAEs ([3]; MAD 20 mg group, 6 subjects): 66.7% | incidence of subjects experiencing TEAE ([3]; MAD 20 mg group, 8 subjects): 88.9% | related TEAE: dizziness ([3]; MAD 40 mg): 4 cases | related TEAE: elevated blood triglycerides ([3]; MAD 40 mg): 3 cases | related TEAE: nausea ([3]; MAD 40 mg): 1 case | Grade 2 related AE: elevated blood cholesterol ([3]; MAD 40 mg group): 1 case | Grade 2 related AE: elevated blood triglycerides ([3]; MAD 40 mg group): 1 case | related TEAE: elevated gamma-glutamyl transferase (γ-GT) ([3]; MAD 40 mg group): 1 case | incidence of subjects experiencing TRAEs ([3]; MAD 40 mg group, 6 subjects): 60.0% | incidence of subjects experiencing TEAE ([3]; MAD 40 mg group, 8 subjects): 80.0% | Grade 3 or higher TEAEs related to the investigational product ([3]; MAD trial): no Grade 3 or higher TEAEs | related TEAE incidence: elevated gamma-glutamyl transferase (γ-GT) ([3]; MAD, 2/29): 6.9% | related TEAE incidence: oral ulcer ([3]; MAD, 2/29): 6.9% | related TEAE incidence: hyperuricemia ([3]; MAD, 2/29, both cases in the 40 mg group): 6.9% | related TEAE incidence: diarrhea ([3]; MAD, 3/29): 10.3% | related TEAE incidence: dry mouth ([3]; MAD, 3/29, all cases in the 10 mg group): 10.3% | related TEAE incidence: headache ([3]; MAD, 3/29, exclusively observed in the 20 mg group): 10.3% | related TEAE incidence: terminal insomnia ([3]; MAD, 3/29, limited to the 20 mg group): 10.3% | related TEAE incidence: elevated blood triglycerides ([3]; MAD, 5/29): 17.2% | related TEAE incidence: nausea ([3]; MAD, 5/29): 17.2% | related TEAE incidence: dizziness ([3]; MAD, 6/29): 20.7% | incidence of Grade 2 AEs related to the investigational product ([3]; MAD, HEC113995PA·H2O group, 3 cases): 10.3% | incidence of subjects experiencing TRAEs ([3]; MAD, HEC113995PA·H2O trial group, 19 subjects, 48 TRAEs): 65.5% | incidence of subjects experiencing TEAE ([3]; MAD, HEC113995PA·H2O trial group, 24 subjects, 85 incidents): 82.8% | tolerability ([3]; healthy Chinese subjects, multiple doses range 10–40 mg daily): well tolerated | pKa ([4]; read-out: acid-base ionization constant pKa1): 6.46 | pKa ([4]; read-out: acid-base ionization constant pKa2): 7.37
